Patent US11840515B2, “Methods for preparing N-(4-fluorobenzyl)-N-(1-methylpiperidin-4-yl)-N′-(4-(2-methylpropyloxy)phenylmethyl)carbamide and its tartrate salt and polymorphic form c” (ACADIA Pharmaceuticals Inc., priority 2015, dated 2023)
Structures can show the parent of a compound that is named as a salt. Each block holds one molecule with its values, some of them ahead of it.

Tests used:
[1] = solubility in water / aqueous systems; assay type: physicochemical
[2] = bioavailability; assay type: in vivo; settings: free base is deliberated at physiological pH ranges
[3] = storage stability; assay type: physicochemical
[4] = thermal stability of polymorphic form; assay type: physicochemical

- solubility in aqueous systems ([1]; aqueous systems): very good
- bioavailability [2]: high bioavailability
- storage stability [3]: high storage stability
Compound: CC(C)COc1ccc(CNC(=O)N(Cc2ccc(F)cc2)C2CCN(C)CC2)cc1 [Pimavanserin tartrate]

- solubility in water ([1]; water): low
Compound: CC(C)COc1ccc(CNC(=O)N(Cc2ccc(F)cc2)C2CCN(C)CC2)cc1 [pimavanserin, N-(4-fluorophenylmethyl)-N-(1-methylpiperidin-4-yl)-N′-(4-(2-methylpropyloxy)phenylmethyl)carbamide]

- thermostability of the polymorphic form [4]: thermostabile
Compound: CC(C)COc1ccc(CNC(=O)N(Cc2ccc(F)cc2)C2CCN(C)CC2)cc1 [Polymorphic Form C]
